The text below walks through data of patent publication US11427581B2, “JAK inhibitor and use thereof” (ZHUHAI UNITED LABORATORIES CO., LTD., priority 2018, dated 2022).

A value given as a limit tells only on which side of the number the result lay.

JAK3 (h), sequence (P52333 whole entry): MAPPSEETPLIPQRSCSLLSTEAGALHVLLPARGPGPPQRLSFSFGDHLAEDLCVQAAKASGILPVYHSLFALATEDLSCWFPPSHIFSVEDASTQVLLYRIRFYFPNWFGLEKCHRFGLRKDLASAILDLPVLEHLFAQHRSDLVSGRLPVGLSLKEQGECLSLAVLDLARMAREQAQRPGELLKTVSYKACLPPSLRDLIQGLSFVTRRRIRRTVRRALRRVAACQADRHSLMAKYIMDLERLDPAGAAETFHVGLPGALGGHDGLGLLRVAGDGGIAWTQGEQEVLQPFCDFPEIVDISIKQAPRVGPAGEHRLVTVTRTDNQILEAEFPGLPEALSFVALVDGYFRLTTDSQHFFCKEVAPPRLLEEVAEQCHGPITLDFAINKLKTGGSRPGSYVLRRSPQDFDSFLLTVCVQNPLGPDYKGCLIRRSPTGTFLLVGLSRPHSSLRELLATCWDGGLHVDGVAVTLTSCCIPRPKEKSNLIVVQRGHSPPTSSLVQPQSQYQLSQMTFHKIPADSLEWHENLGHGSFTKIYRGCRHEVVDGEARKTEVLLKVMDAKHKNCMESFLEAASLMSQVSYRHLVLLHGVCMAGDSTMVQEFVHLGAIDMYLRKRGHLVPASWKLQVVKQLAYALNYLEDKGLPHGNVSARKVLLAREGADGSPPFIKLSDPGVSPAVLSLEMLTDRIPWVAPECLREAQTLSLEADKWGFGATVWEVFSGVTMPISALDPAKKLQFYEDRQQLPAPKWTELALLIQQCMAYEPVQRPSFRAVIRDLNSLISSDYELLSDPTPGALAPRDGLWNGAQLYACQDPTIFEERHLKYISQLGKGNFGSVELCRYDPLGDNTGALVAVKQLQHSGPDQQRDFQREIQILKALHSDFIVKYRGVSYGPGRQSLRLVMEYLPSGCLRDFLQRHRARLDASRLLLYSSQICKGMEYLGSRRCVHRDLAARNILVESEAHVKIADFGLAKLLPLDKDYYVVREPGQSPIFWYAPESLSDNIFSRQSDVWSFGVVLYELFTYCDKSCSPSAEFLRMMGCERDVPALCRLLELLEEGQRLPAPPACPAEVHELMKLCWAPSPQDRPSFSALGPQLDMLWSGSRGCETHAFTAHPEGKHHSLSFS

One data set has as its target JAK3 (h) (Homo sapiens (Human), UniProt P52333). Put plainly: In vitro activity assay of JAK3 kinase (radiometric 33P-ATP, Eurofins). It is filed as biochemical. Particulars: recombinant human JAK3. The protocol: (§1) Recombinant human-derived JAK1, JAK2, JAK3, Tyk2 protease, main instruments and reagents were provided by Eurofins in the UK
(§2) JAK2, JAK3 and TYK2 dilution: 20 mM MOPS, 1 mM EDTA, 0.01% Brij-35.5% glycerol, 0.1% β-mercaptoethanol. 1 mg/mL BSA; JAK1 dilution: 20 mM TRIS, 0.2 mM EDTA, 0.1% β-mercaptoethanol, 0.01% Brij-35.5% glycerol. All compounds were prepared as 100% DMSO solutions, and the concentration of the compound reached 50 times the final measured concentration. The test compound was diluted with a 3-fold concentration gradient, the final concentration was 10 μM to 0.001 μM in total 9 concentrations, and the content of DMSO in the detection reaction was 2%. The working stock solution of the compound was added to the wells as the first component of the reaction, and then the remaining components were added according to the protocol detailed below.
JAK3 (h) was incubated with 8 mM MOPS pH 7.0, 0.2 mM EDTA, 500 μM […], 10 mM magnesium acetate and [γ-^33P]-ATP (activity and concentration were formulated as needed). Mg/ATP mixture was added to initiate the reaction. After incubating at room temperature for 40 minutes, the reaction mixture was added with 0.5% phosphoric acid to stop the reaction. Then 10 μL the reaction solution was spotted on a P30 filter pad and washed with 0.425% phosphoric acid three times and methanol once over 4 minutes, dried, and counted scintillation.
(§3) The IC50 results were analyzed by XLFIT5 (205 formula) of IDBS Company, see Table 1 for details.
Consider `O=C(Nc1nc2cccc(C3=CCC(NC(=O)C4CC4)CC3)n2n1)C1CC1` (stereo not shown) [Compound 1-12], for which the IC50 is greater than 10 µM.

Consider `O=C(Nc1nc2cccc(C3CCC(NC(=O)C4(F)CC4)CC3)n2n1)C1CC1` (stereo not shown) [Compound 4-3], for which the IC50 stood at 4.38 µM.

On to `O=C(Nc1nc2cccc(C3CCC(NC(=O)[C@H]4CC4(F)F)CC3)n2n1)C1CC1` (single isomer, unassigned) [Compound 8-4], for which the IC50 was greater than 10 µM.

Turning to `O=C(Nc1nc2cccc(C3CCC(NC(=O)[C@H]4CC4(F)F)CC3)n2n1)C1CC1` (single isomer, unassigned) [Compound 8-2], the IC50 amounted to 0.957 µM.

Regarding `O=C(Nc1nc2cccc(C3=CCN(C(=O)C4CC4(F)F)C3)n2n1)C1CC1` (stereo not shown) [Compound 6-1], the IC50 is greater than 10 µM.

Regarding `O=C(Nc1nc2cccc(C3=CCC(NC(=O)C4CC4(F)F)CC3)n2n1)C1CC1` (stereo not shown) [Compound 1-7], the IC50 was 3.11 µM.

In the next data set the target is JAK1 (h) (Homo sapiens (Human), UniProt P23458). Put plainly: In vitro activity assay of JAK1 kinase (radiometric 33P-ATP, Eurofins). Particulars: recombinant human JAK1. Type of data set: biochemical.
JAK1 (h), sequence (P23458 whole entry): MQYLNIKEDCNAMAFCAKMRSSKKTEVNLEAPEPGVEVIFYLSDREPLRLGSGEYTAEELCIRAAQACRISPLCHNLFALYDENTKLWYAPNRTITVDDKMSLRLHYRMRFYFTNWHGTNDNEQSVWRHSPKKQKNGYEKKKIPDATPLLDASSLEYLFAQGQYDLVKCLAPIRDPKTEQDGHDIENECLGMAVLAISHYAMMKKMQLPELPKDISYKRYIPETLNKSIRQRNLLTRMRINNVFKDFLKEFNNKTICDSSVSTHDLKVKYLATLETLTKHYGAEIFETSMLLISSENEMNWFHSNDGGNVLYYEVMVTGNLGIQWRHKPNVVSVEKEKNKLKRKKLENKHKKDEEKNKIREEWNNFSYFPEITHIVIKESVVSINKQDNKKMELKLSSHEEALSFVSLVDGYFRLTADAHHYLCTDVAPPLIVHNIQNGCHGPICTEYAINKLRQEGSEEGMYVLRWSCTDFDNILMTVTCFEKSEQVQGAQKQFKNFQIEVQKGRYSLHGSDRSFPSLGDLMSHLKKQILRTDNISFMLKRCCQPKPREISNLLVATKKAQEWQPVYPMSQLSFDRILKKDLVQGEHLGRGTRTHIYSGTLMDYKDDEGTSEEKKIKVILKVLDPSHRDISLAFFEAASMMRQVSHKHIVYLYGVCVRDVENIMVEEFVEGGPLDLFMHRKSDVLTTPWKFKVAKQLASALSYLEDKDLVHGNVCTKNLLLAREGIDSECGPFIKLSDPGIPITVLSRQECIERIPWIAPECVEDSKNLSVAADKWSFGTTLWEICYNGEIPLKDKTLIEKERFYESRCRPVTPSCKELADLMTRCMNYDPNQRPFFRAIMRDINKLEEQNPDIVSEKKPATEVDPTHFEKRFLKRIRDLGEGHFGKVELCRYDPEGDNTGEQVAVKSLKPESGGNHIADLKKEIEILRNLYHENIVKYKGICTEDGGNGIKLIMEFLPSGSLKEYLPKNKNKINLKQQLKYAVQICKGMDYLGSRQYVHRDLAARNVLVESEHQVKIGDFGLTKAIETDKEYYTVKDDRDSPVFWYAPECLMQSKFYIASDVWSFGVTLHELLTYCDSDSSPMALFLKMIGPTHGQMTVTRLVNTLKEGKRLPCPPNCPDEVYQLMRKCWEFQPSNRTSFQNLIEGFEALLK
As to `O=C(Nc1nc2cccc(C3=CC[C@@H](NC(=O)[C@H]4CC4(F)F)CC3)n2n1)C1CC1` [Compound 3-2], the IC50 was 0.163 µM.

Regarding `O=C(Nc1nc2cccc(C3=CCC(NC(=O)C4CC4)CC3)n2n1)C1CC1` (stereo not shown) [Compound 1-12], the IC50 turned out to be 0.149 µM.

`O=C(Nc1nc2cccc(C3CCC(NC(=O)C4(F)CC4)CC3)n2n1)C1CC1` (stereo not shown) [Compound 4-3]: the IC50 is 0.031 µM.

On to `O=C(Nc1nc2cccc(C3CCC(NC(=O)[C@H]4CC4(F)F)CC3)n2n1)C1CC1` (single isomer, unassigned) [Compound 8-4], for which the IC50 amounted to 0.442 µM.

As for `O=C(Nc1nc2cccc(C3=CC[C@H](NC(=O)[C@@H]4CC4(F)F)CC3)n2n1)C1CC1` [Compound 3-3], the IC50 came out at 0.166 µM.

Turning to `O=C(Nc1nc2cccc(C3CCC(NC(=O)[C@H]4CC4(F)F)CC3)n2n1)C1CC1` (single isomer, unassigned) [Compound 8-2], the IC50 was found to be 0.002 µM.

With `O=C(Nc1nc2cccc(C3=CCN(C(=O)C4CC4(F)F)C3)n2n1)C1CC1` (stereo not shown) [Compound 6-1], the IC50 is 0.07 µM.

The next data set deals with adjuvant-induced arthritis rat model. Description: In vivo drug efficacy study in an adjuvant-induced arthritis model (AIA). To be noted: 0.3 mg/kg p.o. qd 14 d.
As for `C[C@@H]1C[C@H]2[C@@H]3CCC4=CC(=O)C=C[C@]4(C)[C@@]3(F)[C@@H](O)C[C@]2(C)[C@@]1(O)C(=O)CO` [Dexamethasone, reference compound], the “inhibition rate relative to the vehicle control group (foot volume curve AUC)” value was found to be 44.9%.

Staying with this data set, now noted: 0.3 mg/kg p.o. qd 14 d; end of the experiment; vehicle 2.8 mL.
With `C[C@@H]1C[C@H]2[C@@H]3CCC4=CC(=O)C=C[C@]4(C)[C@@]3(F)[C@@H](O)C[C@]2(C)[C@@]1(O)C(=O)CO` [Dexamethasone, reference compound], the “average foot volume of arthritis rat” value is reported as 1.1 mL.

Still in this data set, the particulars now being: 0.3 mg/kg p.o. qd 14 d; from the 23rd day until the end of the experiment.
With `C[C@@H]1C[C@H]2[C@@H]3CCC4=CC(=O)C=C[C@]4(C)[C@@]3(F)[C@@H](O)C[C@]2(C)[C@@]1(O)C(=O)CO` [Dexamethasone, reference compound], the “clinical score of arthritis rats” value is recorded as “about 2.0”.

Staying with this data set, now noted: 5 mg/kg p.o. bid 14 d.
`O=C(Nc1nc2cccc(C3CCC(NC(=O)[C@H]4CC4(F)F)CC3)n2n1)C1CC1` (single isomer, unassigned) [Compound 8-2]: the “inhibition rate relative to the vehicle control group (foot volume curve AUC)” value was 38.0%.

Still in this data set, the particulars now being: 5 mg/kg p.o. bid 14 d; end of the experiment (27th day); vehicle 2.8 mL.
As to `O=C(Nc1nc2cccc(C3CCC(NC(=O)[C@H]4CC4(F)F)CC3)n2n1)C1CC1` (single isomer, unassigned) [Compound 8-2], the “average foot volume of arthritis rat” value is 1.4 mL.

Still in this data set, the particulars now being: 15 mg/kg p.o. bid 14 d.
Take `O=C(Nc1nc2cccc(C3CCC(NC(=O)[C@H]4CC4(F)F)CC3)n2n1)C1CC1` (single isomer, unassigned) [Compound 8-2]: the “inhibition rate relative to the vehicle control group (foot volume curve AUC)” value amounted to 44.5%.

Still in this data set, the particulars now being: 15 mg/kg p.o. bid 14 d; end of the experiment (27th day); vehicle 2.8 mL.
With `O=C(Nc1nc2cccc(C3CCC(NC(=O)C4(F)CC4)CC3)n2n1)C1CC1` (stereo not shown) [Compound 4-3], the “average foot volume of arthritis rat” value was found to be 1.5 mL.

As for `O=C(Nc1nc2cccc(C3CCC(NC(=O)[C@H]4CC4(F)F)CC3)n2n1)C1CC1` (single isomer, unassigned) [Compound 8-2], the “average foot volume of arthritis rat” value was determined as 1.1 mL.

Still in this data set, the particulars now being: 5 mpk p.o. bid 14 d; end of the experiment (27th day); vehicle peak about 8.5.
As for `O=C(Nc1nc2cccc(C3CCC(NC(=O)[C@H]4CC4(F)F)CC3)n2n1)C1CC1` (single isomer, unassigned) [Compound 8-2], the “clinical score of arthritis rats” value was 2.7.

Still in this data set, the particulars now being: 15 mpk p.o. bid 14 d; end of the experiment (27th day); vehicle peak about 8.5.
In the case of `O=C(Nc1nc2cccc(C3CCC(NC(=O)C4(F)CC4)CC3)n2n1)C1CC1` (stereo not shown) [Compound 4-3], the “clinical score of arthritis rats” value was 2.6.

For `O=C(Nc1nc2cccc(C3CCC(NC(=O)[C@H]4CC4(F)F)CC3)n2n1)C1CC1` (single isomer, unassigned) [Compound 8-2], the “clinical score of arthritis rats” value was found to be 1.0.

The same data set, now with this note: Rattus norvegicus, po, 336 h; 15 mg/kg p.o. bid 14 d; read-out: inhibition rate relative to the vehicle control group (foot volume curve AUC).
For `O=C(Nc1nc2cccc(C3CCC(NC(=O)C4(F)CC4)CC3)n2n1)C1CC1` (stereo not shown) [Compound 4-3], the inhibition at 15 mg/kg stood at 32.3%.

Still in this data set, the particulars now being: dose groups 5 and 15 mg/kg p.o. bid; weight decreased from the 15th to the 17th day.
As for `O=C(Nc1nc2cccc(C3CCC(NC(=O)[C@H]4CC4(F)F)CC3)n2n1)C1CC1` (single isomer, unassigned) [Compound 8-2], the “body weight of arthritis rats” value is “began to recover slowly on the 19th day”.

Test system in another data set: not listed separately
Description: Pharmacokinetic (PK) assay in rat. It is filed as in vivo. Particulars: blood, po; male SD rat; gavage vs tail vein; read-out: Bioavailability. The protocol:
The clear solution obtained by dissolving the test compound was injected into male mice (C57BL/6) or rats (SD) by tail vein and gavage respectively (overnight fasting, 7-8 weeks old). […] The drug concentration on blood was determined by LC-MS/MS, the related pharmacokinetic parameters were calculated by the linear logarithm trapezoid method of non atrioventricular model by WinNonlin™ Version 6.3.
With `O=C(Nc1nc2cccc(C3CCC(NC(=O)C4(F)CC4)CC3)n2n1)C1CC1` (stereo not shown) [Compound 4-3], the Bioavailability is 89.8%.

Staying with this data set, now noted: blood, po; male SD rat; tail vein and gavage groups, route of the parameter and dose not given; read-out: AUC0-inf.
As for `O=C(Nc1nc2cccc(C3CCC(NC(=O)C4(F)CC4)CC3)n2n1)C1CC1` (stereo not shown) [Compound 4-3], the AUC0-inf turned out to be 85.8 µM·h.

The same data set, now with this note: blood, po; male SD rat; tail vein and gavage groups, route of the parameter and dose not given; read-out: Cmax (peak concentration).
Take `O=C(Nc1nc2cccc(C3CCC(NC(=O)C4(F)CC4)CC3)n2n1)C1CC1` (stereo not shown) [Compound 4-3]: the Cmax came to 24.8 µM.

The same data set, now with this note: blood, po; male SD rat; tail vein and gavage groups, route of the parameter and dose not given; read-out: T1/2 (half-life) (converted).
Consider `O=C(Nc1nc2cccc(C3CCC(NC(=O)C4(F)CC4)CC3)n2n1)C1CC1` (stereo not shown) [Compound 4-3], for which the half-life was 2.86 h.

The same data set, now with this note: male SD rat; gavage vs tail vein.
For the molecule `O=C(Nc1nc2cccc(C3=CCC(NC(=O)C4CC4(F)F)CC3)n2n1)C1CC1` (stereo not shown) [Compound 1-7], the Bioavailability was 75.2%.

Staying with this data set, now noted: male SD rat; tail vein and gavage groups, route of the parameter and dose not given.
For `O=C(Nc1nc2cccc(C3=CCC(NC(=O)C4CC4(F)F)CC3)n2n1)C1CC1` (stereo not shown) [Compound 1-7], the AUC0-inf turned out to be 18.033 µM·h and the “T1/2 (half-life)” value was 2.07 h.

Staying with this data set, now noted: male SD rat; tail vein and gavage groups, route of the parameter and dose not given; read-out: Cmax (peak concentration).
With `O=C(Nc1nc2cccc(C3=CCC(NC(=O)C4CC4(F)F)CC3)n2n1)C1CC1` (stereo not shown) [Compound 1-7], the Cmax turned out to be 23.9 µM.

For another data set, the target named is JAK2 (h) (Homo sapiens (Human), UniProt O60674). Put plainly: In vitro activity assay of JAK2 kinase (radiometric 33P-ATP, Eurofins). It is filed as biochemical. Particulars: recombinant human JAK2.
JAK2 (h), sequence (O60674 whole entry): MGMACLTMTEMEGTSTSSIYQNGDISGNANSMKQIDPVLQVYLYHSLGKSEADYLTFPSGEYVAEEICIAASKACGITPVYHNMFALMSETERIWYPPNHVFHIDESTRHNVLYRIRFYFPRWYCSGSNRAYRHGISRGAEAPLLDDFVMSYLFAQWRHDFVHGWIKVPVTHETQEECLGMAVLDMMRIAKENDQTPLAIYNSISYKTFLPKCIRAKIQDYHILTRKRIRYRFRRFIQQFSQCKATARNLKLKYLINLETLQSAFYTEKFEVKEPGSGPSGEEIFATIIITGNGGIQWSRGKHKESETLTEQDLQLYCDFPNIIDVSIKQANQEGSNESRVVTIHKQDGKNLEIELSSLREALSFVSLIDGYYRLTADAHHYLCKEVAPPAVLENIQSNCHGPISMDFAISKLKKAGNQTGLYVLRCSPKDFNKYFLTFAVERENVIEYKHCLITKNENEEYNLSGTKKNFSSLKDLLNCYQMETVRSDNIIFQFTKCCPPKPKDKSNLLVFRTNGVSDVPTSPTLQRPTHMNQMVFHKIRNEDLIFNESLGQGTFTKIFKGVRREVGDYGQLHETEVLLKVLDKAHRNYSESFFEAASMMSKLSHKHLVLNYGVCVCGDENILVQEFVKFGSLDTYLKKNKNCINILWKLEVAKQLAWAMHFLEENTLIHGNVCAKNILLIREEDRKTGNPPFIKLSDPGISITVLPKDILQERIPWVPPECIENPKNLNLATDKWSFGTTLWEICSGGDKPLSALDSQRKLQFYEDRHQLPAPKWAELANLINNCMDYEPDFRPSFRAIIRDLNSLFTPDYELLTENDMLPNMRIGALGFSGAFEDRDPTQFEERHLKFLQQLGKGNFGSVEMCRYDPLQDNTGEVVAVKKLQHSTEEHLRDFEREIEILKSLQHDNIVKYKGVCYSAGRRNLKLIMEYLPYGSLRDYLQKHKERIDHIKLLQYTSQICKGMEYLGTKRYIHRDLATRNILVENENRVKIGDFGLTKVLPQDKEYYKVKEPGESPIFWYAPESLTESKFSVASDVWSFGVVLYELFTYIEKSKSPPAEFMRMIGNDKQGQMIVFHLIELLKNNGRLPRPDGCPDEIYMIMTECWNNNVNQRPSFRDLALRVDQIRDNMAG
With `O=C(Nc1nc2cccc(C3=CCC(NC(=O)C4CC4)CC3)n2n1)C1CC1` (stereo not shown) [Compound 1-12], the half-inhibitory concentration (IC50) came to 1.42 µM.

In the case of `O=C(Nc1nc2cccc(C3CCC(NC(=O)C4(F)CC4)CC3)n2n1)C1CC1` (stereo not shown) [Compound 4-3], the IC50 came out at 0.36 µM.

Regarding `O=C(Nc1nc2cccc(C3CCC(NC(=O)[C@H]4CC4(F)F)CC3)n2n1)C1CC1` (single isomer, unassigned) [Compound 8-4], the IC50 was found to be 3.75 µM.

As for `O=C(Nc1nc2cccc(C3=CCC(NC(=O)C4CC4(F)F)CC3)n2n1)C1CC1` (stereo not shown) [Compound 1-7], the IC50 was determined as 0.239 µM.

Another data set deals with TYK2 (h) (Homo sapiens (Human), UniProt P29597). Description: In vitro activity assay of TYK2 kinase (radiometric 33P-ATP, Eurofins). Particulars: recombinant human TYK2. It is filed as biochemical. How it is done: as §1, §2
TYK2 (h), sequence (P29597 whole entry): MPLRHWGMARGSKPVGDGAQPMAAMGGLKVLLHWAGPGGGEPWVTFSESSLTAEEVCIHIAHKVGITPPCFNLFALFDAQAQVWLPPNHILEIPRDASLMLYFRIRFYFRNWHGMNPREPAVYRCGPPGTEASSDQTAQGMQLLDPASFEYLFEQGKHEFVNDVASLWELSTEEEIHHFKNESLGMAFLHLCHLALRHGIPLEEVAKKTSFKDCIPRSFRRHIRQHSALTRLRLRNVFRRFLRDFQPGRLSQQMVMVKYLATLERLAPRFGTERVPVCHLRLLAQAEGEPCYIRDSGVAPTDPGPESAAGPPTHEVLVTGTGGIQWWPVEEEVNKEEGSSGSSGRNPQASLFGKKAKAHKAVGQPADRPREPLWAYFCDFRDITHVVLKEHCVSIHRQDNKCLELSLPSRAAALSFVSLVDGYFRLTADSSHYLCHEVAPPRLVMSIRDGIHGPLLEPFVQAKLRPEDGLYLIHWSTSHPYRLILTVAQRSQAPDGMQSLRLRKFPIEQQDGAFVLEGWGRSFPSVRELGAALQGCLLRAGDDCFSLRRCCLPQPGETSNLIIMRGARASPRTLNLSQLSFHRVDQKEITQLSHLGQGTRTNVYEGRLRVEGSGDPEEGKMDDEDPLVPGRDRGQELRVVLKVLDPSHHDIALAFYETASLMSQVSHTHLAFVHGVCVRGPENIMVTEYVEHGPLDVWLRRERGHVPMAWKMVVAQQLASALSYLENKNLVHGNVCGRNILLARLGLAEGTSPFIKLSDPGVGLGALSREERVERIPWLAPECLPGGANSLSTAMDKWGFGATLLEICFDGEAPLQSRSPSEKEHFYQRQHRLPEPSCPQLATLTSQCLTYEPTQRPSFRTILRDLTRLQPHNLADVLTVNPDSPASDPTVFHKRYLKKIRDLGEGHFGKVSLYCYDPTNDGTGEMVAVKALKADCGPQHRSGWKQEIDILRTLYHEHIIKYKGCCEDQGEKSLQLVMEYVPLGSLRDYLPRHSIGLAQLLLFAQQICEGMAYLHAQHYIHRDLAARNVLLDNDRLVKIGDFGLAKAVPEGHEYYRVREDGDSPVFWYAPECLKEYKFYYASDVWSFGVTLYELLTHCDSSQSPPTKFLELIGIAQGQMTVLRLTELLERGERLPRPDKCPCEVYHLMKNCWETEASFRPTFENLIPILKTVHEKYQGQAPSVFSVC
TYK2 (h) was incubated with 8 mM MOPS pH 7.0, 0.2 mM EDTA, 250 μM […], 10 mM magnesium acetate and [γ-^33P]-ATP (activity and concentration were formulated as needed). Mg/ATP mixture was added to initiate the reaction. After incubating at room temperature for 40 minutes, the reaction mixture was added with 0.5% phosphoric acid to stop the reaction. Then 10 μL reaction was spotted on a P30 filter pad and washed with 0.425% phosphoric acid three times and methanol once over 4 minutes, dried, and counted scintillation.
as §3
`O=C(Nc1nc2cccc(C3=CC[C@@H](NC(=O)[C@H]4CC4(F)F)CC3)n2n1)C1CC1` [Compound 3-2]: the half-inhibitory concentration (IC50) worked out at 1.37 µM.

In the case of `O=C(Nc1nc2cccc(C3=CCC(NC(=O)C4CC4)CC3)n2n1)C1CC1` (stereo not shown) [Compound 1-12], the IC50 is 0.497 µM.

For `O=C(Nc1nc2cccc(C3CCC(NC(=O)C4(F)CC4)CC3)n2n1)C1CC1` (stereo not shown) [Compound 4-3], the IC50 worked out at 0.127 µM.

For `O=C(Nc1nc2cccc(C3CCC(NC(=O)[C@H]4CC4(F)F)CC3)n2n1)C1CC1` (single isomer, unassigned) [Compound 8-4], the IC50 was 2.44 µM.

Regarding `O=C(Nc1nc2cccc(C3=CC[C@H](NC(=O)[C@@H]4CC4(F)F)CC3)n2n1)C1CC1` [Compound 3-3], the IC50 came out at 0.942 µM.

Regarding `O=C(Nc1nc2cccc(C3CCC(NC(=O)[C@H]4CC4(F)F)CC3)n2n1)C1CC1` (single isomer, unassigned) [Compound 8-2], the IC50 turned out to be 0.024 µM.

In the case of `O=C(Nc1nc2cccc(C3=CCN(C(=O)C4CC4(F)F)C3)n2n1)C1CC1` (stereo not shown) [Compound 6-1], the IC50 came out at 0.244 µM.

For `O=C(Nc1nc2cccc(C3=CCC(NC(=O)C4CC4(F)F)CC3)n2n1)C1CC1` (stereo not shown) [Compound 1-7], the IC50 turned out to be 0.073 µM.
